Legend:
[1] = tested on: SK-BR-3; assay: Antiproliferative activity against human SK-BR-3 cells assessed as cell growth inhibition measured after 72 hrs by MTT assay; format: functional, cell-based; settings: SK-BR-3, 72 h
[2] = tested on: MCF-10A; assay: Antiproliferative activity against human MCF-10A cells assessed as cell growth inhibition measured after 72 hrs by MTT assay; format: functional, cell-based
[3] = tested on: MCF7; assay: Antiproliferative activity against human MCF7 cells assessed as cell growth inhibition measured after 72 hrs by MTT assay; format: functional, cell-based; settings: MCF7, 72 h
[4] = tested on: DU-145; assay: Antiproliferative activity against human DU-145 cells assessed as cell growth inhibition measured after 72 hrs by MTT assay; format: functional, cell-based; settings: DU-145, 72 h
[5] = tested on: MDA-MB-231; assay: Antiproliferative activity against human MDA-MB-231 cells assessed as cell growth inhibition measured after 72 hrs by MTT assay; format: functional, cell-based; settings: MDA-MB-231, 72 h
[6] = tested on: Human immunodeficiency virus 1; assay: Antiviral activity against wild type HIV1 IIIB assessed as viral growth inhibition measured after 5 days by MTT assay; format: functional, organism-based; settings: Human immunodeficiency virus 1, IIIB, 120 h
[7] = Cytotoxicity against human MT2 cells assessed as cell growth inhibition by MTT assay; format: toxicity, cell-based

| IC50 [1] | IC50 [3] | IC50 [4] | IC50 [5] | SMILES | IC50 [2] | IC50 [6] | IC50 [7] |
| --- | --- | --- | --- | --- | --- | --- | --- |
| 290 nM | > 20000 nM | 670 nM | 60 nM | CN(C)c1ccc(-c2nc(N)nc(Nc3ccccc3F)n2)cc1 | > 25000 nM |  |  |
|  |  |  |  | N#C/C=C/c1cccc(Oc2cc(Nc3nc(N)nc(C4CC4)n3)ccc2C#N)c1 |  | 43 nM | 1700 nM |

Reference: ChEMBL document CHEMBL5214932, “A closer look at N2,6-substituted 1,3,5-triazine-2,4-diamines: Advances in synthesis and biological activities” (Eur J Med Chem, 2022)
